Results from US4666842A, “Novel aldehyde oxidase and process for producing same” (Kyowa Hakko Kogyo Co., Inc., priority 1982, dated 1987).
“Also recorded” adds a separate entry of the source. Where two headings read alike, the source gives them in different places.

Key:
[1] = tested on: aldehyde oxidase (the present enzyme); experiment: Substrate specificity of the present aldehyde oxidase; type: biochemical, Pseudomonas sp No. 6233; settings: for Relative activity (substrate specificity): purified enzyme of Example 1, formaldehyde = 100%
Description: (§1) The amount of enzyme for decomposing 1 μmol of acetaldehyde in the presence of oxygen at 37° C. in one minute is designated as one unit. Specific activity is expressed by unit per mg of protein. The amount of enzyme protein is measured according to the method of O. H. Lowry, N. J. Rosebrough, A. L. Farr and R. J. Randall, J. Biol. Chem., 193 265(1951) using a copper-Folin reagent.
(§2) The enzyme activity can be measured by allowing the hydrogen peroxide formed from acetaldehyde by the action of the enzyme to react with 4-aminoantipyrine and phenol in the presence of a peroxidase and by quantitatively determining the amount of quinoneimine formed. The reaction is illustrated by the following equations (1) and (2): [drawing 1]
(§3) The above reagents (1)-(6) are put into a test tube, thoroughly shaken, and left standing at 37° C. for 5 minutes. Then, the enzyme solution (7) is added to the test tube to make up a total volume of 3 ml, and the test tube is shaken at 37° C. for 10 minutes to complete the reaction. As a control, the procedure is repeated using water in place of the substrate. The absorbancies of the reaction solution and control at 500 nm are measured, and the difference between the absorbancies is obtained as ΔO.D.
(§4) One unit of aldehyde oxidase is the amount of enzyme for decomposing 1 μmole of acetaldehyde at 37° C. in one minute. The absorbancy coefficient of 1 mM quinoneimine is reported in Clin. Chem., 20, 470(1974) to be 5.33. Therefore, if the absorbancy (ΔO.D.) of 3 ml of the reaction solution at 500 nm as obtained in the procedure (C) is designation as a, titer (A) per ml of the enzyme solution can be given as follows: [formula]
(§5) II. Physical and chemical properties of the aldehyde oxidase of the present invention are described below (hereinafter, the aldehyde oxidase will be sometimes referred to merely as "the present enzyme"). A purified enzyme prepared in Example 1 is used as the aldehyde oxidase.
For example, formaldehyde, acetaldehyde and glyceraldehyde are oxidized to formic acid, acetic acid and glyceric acid respectively. The present enzyme acts upon a wide range of aldehydes, for example, saturated aliphatic aldehydes such as formaldehyde, acetaldehyde, propionaldehyde, n-valeraldehyde, n-hexylaldehyde, heptylaldehyde, etc.; unsaturated aliphatic aldehydes such as crotonaldehyde, citral, etc.; aromatic aldehydes such as benzaldehyde, etc.; D- or L-glyceraldehyde, etc.
In the following Table 1, the relative activity of the present enzyme upon various substrates is set forth.

[2] = tested on: aldehyde oxidase (the present enzyme); type: biochemical, Pseudomonas sp No. 6233
Description: as §1, §2, §3, §4, §5
The present enzyme is inhibited by mercuric chloride and p-chloromercuriphenylsulfonic acid, and thus it appears that an SH group takes part in the reaction.

[3] = target: T1, aldehyde oxidase of animal origin (Oryctolagus cuniculus, UniProt P80456); settings: known enzyme, literature; cited from earlier work
T1 sequence (P80456 1-1334): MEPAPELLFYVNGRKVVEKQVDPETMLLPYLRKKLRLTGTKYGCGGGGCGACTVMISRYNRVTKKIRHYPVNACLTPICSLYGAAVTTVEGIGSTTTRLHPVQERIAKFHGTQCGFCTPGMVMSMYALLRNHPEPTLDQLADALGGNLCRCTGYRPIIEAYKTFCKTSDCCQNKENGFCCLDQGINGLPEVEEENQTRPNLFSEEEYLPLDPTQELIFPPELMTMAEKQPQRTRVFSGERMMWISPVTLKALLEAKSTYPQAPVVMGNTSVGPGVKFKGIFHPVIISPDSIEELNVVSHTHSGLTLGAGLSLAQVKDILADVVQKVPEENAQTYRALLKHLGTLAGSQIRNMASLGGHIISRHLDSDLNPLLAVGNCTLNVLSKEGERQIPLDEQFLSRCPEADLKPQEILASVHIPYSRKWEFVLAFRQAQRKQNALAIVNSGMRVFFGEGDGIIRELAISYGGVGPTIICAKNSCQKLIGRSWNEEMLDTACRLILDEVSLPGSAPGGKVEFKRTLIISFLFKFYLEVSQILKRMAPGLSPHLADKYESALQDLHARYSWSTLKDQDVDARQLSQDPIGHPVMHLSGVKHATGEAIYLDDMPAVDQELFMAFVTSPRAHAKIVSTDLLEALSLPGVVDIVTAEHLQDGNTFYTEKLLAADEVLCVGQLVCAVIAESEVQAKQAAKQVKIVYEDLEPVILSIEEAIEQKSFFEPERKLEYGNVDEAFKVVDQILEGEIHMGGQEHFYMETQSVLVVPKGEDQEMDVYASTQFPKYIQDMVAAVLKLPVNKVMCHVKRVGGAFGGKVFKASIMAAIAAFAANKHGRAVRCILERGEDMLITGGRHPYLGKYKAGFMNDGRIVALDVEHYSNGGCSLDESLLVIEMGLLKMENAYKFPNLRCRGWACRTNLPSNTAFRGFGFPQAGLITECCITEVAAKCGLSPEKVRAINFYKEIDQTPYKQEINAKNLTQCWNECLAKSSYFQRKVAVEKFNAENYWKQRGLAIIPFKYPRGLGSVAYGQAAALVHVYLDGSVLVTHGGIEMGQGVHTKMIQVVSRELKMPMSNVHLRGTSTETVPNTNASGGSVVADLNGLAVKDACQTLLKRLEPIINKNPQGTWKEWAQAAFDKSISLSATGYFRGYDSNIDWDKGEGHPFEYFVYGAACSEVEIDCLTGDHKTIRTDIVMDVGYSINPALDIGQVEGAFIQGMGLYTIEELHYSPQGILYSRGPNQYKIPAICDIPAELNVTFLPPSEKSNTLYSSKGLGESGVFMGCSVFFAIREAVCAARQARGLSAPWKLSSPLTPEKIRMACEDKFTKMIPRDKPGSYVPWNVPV

[4] = target: T1, aldehyde oxidase of animal origin; type: biochemical
From the text: *aldehyde oxidase of animal origin for comparison purposes.

[5] = concentration 0.1 mM, none = 100

| Molecule | action of the present enzyme upon the substrate [1] | Relative activity (substrate specificity) [1] [%] | other results |
| --- | --- | --- | --- |
| CC=O [Acetaldehyde] | acts upon | 266 | – |
| [Ba+2].[Cl-].[Cl-] [BaCl2] | – | – | Relative activity (%) [2, 5]: 87% |
| O=Cc1ccccc1 [Benzaldehyde] | acts upon | 93 | – |
| CC(=O)O [Ca(CH3 COO)2] | – | – | Relative activity (%) ([2]; 1000 µM): 109% |
| CC(C)=CCCC(C)=CC=O [Citral] | acts upon | 291 | – |
| [Cl-].[Cl-].[Co+2] [CoCl2] | – | – | Relative activity (%) ([2]; concentration 1 mM, none = 100): 104% |
| C/C=C/C=O [Crotonaldehyde] | acts upon | 260 | – |
| O=S(=O)([O-])[O-].[Cu+2] [CuSO4] | – | – | Relative activity (%) [2, 5]: 20% |
| O=C[C@H](O)CO [D-Glyceraldehyde] | acts upon | 270 | – |
| CCO [Ethanol] | does not act upon | 0 | – |
| O=S(=O)([O-])[O-].[Fe+2] [FeSO4] | – | – | Relative activity (%) [2, 5]: 100% |
| C=O [Formaldehyde] | acts upon | 100 | – |
| CCCCCCC=O [Heptylaldehyde] | acts upon | 387 | – |
| [Cl][Hg][Cl] [HgCl2, mercuric chloride] | – | – | Relative activity (%) [2, 5]: 0%; inhibition of the present enzyme [2]: inhibited |
| NO [Hydroxylamine] | – | – | Relative activity (%) ([2]; concentration 1 mM, none = 100): 110% |
| O=c1[nH]cnc2nc[nH]c12 [Hypoxanthine] | does not have any catalytic action | 0 | action of aldehyde oxidase of animal origin upon the substrate [3]: acts upon |
| O=C[C@@H](O)CO [L-Glyceraldehyde] | acts upon | 23 | – |

| Molecule | action of the present enzyme upon the substrate [1] | Relative activity (substrate specificity) [1] [%] | other results |
| --- | --- | --- | --- |
| CO [Methanol] | does not act upon | 0 | – |
| O=S(=O)([O-])[O-].[Mg+2] [MgSO4] | – | – | Relative activity (%) ([2]; concentration 1 mM, none = 100): 97% |
| [Cl][Mn][Cl] [MnCl2] | – | – | Relative activity (%) ([2]; concentration 1 mM, none = 100): 106% |
| C[n+]1cccc(C(N)=O)c1 [N'--Methylnicotinamide] | does not act upon | 0 | – |
| c1cnc2c(c1)ccc1cccnc12 [O--Phenanthroline] | – | – | Relative activity (%) ([2]; concentration 1 mM, none = 100): 103% |
| CCC=O [Propionaldehyde] | acts upon | 285 | – |
| c1ncc2[nH]cnc2n1 [Purine] | does not have any catalytic action | 0 | action of aldehyde oxidase of animal origin upon the substrate [3]: acts upon |
| C=C[C@H]1C[N@@]2CC[C@H]1C[C@H]2[C@H](O)c1ccnc2ccc(OC)cc12 [Quinine] | does not have any catalytic action; also recorded: does not act upon | 0 | – |
| c1ccc2ncccc2c1 [Quinoline] | does not act upon | 0 | – |
| ON=Cc1ccccc1O [Salicylaldoxime] | – | – | Relative activity (%) ([2]; 1000 µM): 91% |
| [Cl-].[Cl-].[Sr+2] [SrCl2] | – | – | Relative activity (%) ([2]; concentration 1 mM, none = 100): 94% |
| [Cl-].[Cl-].[Zn+2] [ZnCl2] | – | – | Relative activity (%) ([2]; concentration 1 mM, none = 100): 103% |
| CCCCCC=O [n-Hexylaldehyde] | acts upon | 390 | – |
| CCCCC=O [n-Valeraldehyde] | acts upon | 367 | – |
| O=S(=O)(O)c1cc[c]([Hg][Cl])cc1 [p-Chloromercuriphenylsulfonic acid, p-chloromercuriphenylsulfonic acid] | – | – | Relative activity (%) [2, 5]: 0%; inhibition of the present enzyme [2]: inhibited |
| c1ccc(-c2ccccn2)nc1 [α, α'-Dipyridyl] | – | – | Relative activity (%) ([2]; concentration 1 mM, none = 100): 85% |
| Antimycin A | – | – | Relative activity (%), aldehyde oxidase of animal origin ([4]; concentration 2 × 10^-3 mM, value in brackets, for comparison, 2 µM): 38%; inhibition of the known aldehyde oxidase of animal origin ([4]; known aldehyde oxidase): strongly inhibited; Relative activity (%) ([2]; concentration 2 × 10^-3 mM, none = 100, 2 µM): 94%; inhibition of the present enzyme [2]: not strongly inhibited |
